Data taken from publication PMC8010095, “Discovery of novel antituberculosis agents among 3-phenyl-5-(1-phenyl-1H-[1,2,3]triazol-4-yl)-[1,2,4]oxadiazole derivatives targeting aminoacyl-tRNA synthetases” (Scientific Reports, 2021).
In brackets after ≈: the same amount, converted by molar mass. Entries after “also recorded” stand apart in the source; their conditions may differ. Read-outs that look alike come from different tables or passages of the source.

Legend:
[1] = MTT cytotoxicity assay, HepG2; format: cell-based, human; settings: human, hepg2 cells, read-out: CC50, concentration to cause 50% cytotoxicity
Method: (§1) We have tested compound 27 for cytotoxicity toward human cell lines HEK293 (human embryonic kidney 293) and HepG2 (human hepatocellular carcinoma cell line) using standard MTT assay.
(§2) Compound cytotoxicity was determined by standard MTT assay[37] using human embryonic kidney 293 (HEK293) and human hepatocellular carcinoma (HepG2) cell lines according to the method described previously. HEK 293 cell line was obtained from the Russian Cell Culture Collection (Institute of Cytology of the Russian Academy of Science, St.Petersburg, Russia) and HepG2 – from the Bank of Cell Lines from human and animal tissue (R. E. Kavetsky Institute of Experimental Pathology, Oncology and Radiobiology, NAS of Ukraine, Kyiv, Ukraine).

[2] = tested on: HepG2 (human hepatocellular carcinoma cell line); assay: MTT cytotoxicity assay, HepG2; format: cell-based; settings: 3.125 µM to 50 µM
Method: as §1, §2

[3] = tested on: Mycobacterium avium (ATCC 700,891 MAC 101); assay: microbe, parasite or virus in culture; format: cell-based; settings: > 80% reduction in growth, screened at 20, 2 and 0.2 mg/L, 7H9 complete medium; for MIC: Mycobacterium avium, ATCC700, read-out: Growth inhibition cutoff, M. avium 700,891 (MAC 101)
M. tuberculosis H37Rv [4] = assay: microbe, parasite or virus in culture; format: cell-based, Mycobacterium tuberculosis; settings: read-out: 2-week MIC
[5] = tested on: HEK293 (human embryonic kidney 293); assay: MTT cytotoxicity assay, HEK293; format: cell-based; settings: 3.125 µM to 50 µM
Method: as §1, §2

[6] = MTT cytotoxicity assay, HEK293; format: cell-based, human; settings: human, hek293 cells, read-out: CC50, concentration to cause 50% cytotoxicity
Method: as §1, §2

[7] = target: T1, M. tuberculosis leucyl-tRNA synthetase (LeuRS) (Mycobacterium tuberculosis, UniProt P9WFV1); assay: biochemical; format: biochemical; settings: for IC50: mean ± s.d. (n = 3)
T1 construct: made in house; host or cells: Escherichia coli
T1 sequence (P9WFV1 whole entry): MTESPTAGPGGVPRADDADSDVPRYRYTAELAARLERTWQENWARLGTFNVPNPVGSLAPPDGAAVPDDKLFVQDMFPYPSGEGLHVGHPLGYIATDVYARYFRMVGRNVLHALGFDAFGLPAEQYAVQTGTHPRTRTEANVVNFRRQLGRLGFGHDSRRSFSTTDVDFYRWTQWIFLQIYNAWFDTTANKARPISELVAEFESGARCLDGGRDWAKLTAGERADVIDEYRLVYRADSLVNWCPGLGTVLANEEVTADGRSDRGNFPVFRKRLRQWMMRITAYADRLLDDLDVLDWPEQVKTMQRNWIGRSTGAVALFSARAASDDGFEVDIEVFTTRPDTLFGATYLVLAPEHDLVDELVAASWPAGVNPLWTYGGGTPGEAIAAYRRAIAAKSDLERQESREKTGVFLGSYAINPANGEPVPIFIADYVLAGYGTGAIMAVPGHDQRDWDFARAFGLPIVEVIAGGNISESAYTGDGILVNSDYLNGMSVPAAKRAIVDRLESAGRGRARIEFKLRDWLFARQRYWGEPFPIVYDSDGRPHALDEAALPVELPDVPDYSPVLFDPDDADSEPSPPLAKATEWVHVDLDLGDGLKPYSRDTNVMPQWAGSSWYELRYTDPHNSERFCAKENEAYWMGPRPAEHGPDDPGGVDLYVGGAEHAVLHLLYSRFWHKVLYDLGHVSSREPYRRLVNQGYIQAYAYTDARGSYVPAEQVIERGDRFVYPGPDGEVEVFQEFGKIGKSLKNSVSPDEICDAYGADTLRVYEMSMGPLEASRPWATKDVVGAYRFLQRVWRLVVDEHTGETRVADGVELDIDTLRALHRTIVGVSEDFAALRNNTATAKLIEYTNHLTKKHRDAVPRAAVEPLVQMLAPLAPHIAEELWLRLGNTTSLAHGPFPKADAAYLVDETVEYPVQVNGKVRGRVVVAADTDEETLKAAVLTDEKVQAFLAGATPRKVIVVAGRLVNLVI

M. tuberculosis H37Rv [8] = assay: microbe, parasite or virus in culture; format: cell-based; settings: > 80% reduction in growth, screened at 20, 2 and 0.2 mg/L, 7H9 complete medium; for MIC: Mycobacterium tuberculosis, H37RV, read-out: Growth inhibition cutoff, H37Rv
[9] = tested on: Mycobacterium abscessus (ATCC 19,977); assay: microbe, parasite or virus in culture; format: cell-based; settings: > 80% reduction in growth, screened at 20, 2 and 0.2 mg/L, 7H9 complete medium; for MIC: Mycobacteroides abscessus, ATCC19, read-out: Growth inhibition cutoff, M. abscessus 19,977
[10] = target: T2, M. tuberculosis methionyl-tRNA synthetase (MetRS) (Mycobacterium tuberculosis, UniProt P9WFU5); assay: biochemical; format: biochemical; settings: for IC50: mean ± s.d. (n = 3)
T2 construct: made in house; host or cells: Escherichia coli
T2 sequence (P9WFU5 whole entry): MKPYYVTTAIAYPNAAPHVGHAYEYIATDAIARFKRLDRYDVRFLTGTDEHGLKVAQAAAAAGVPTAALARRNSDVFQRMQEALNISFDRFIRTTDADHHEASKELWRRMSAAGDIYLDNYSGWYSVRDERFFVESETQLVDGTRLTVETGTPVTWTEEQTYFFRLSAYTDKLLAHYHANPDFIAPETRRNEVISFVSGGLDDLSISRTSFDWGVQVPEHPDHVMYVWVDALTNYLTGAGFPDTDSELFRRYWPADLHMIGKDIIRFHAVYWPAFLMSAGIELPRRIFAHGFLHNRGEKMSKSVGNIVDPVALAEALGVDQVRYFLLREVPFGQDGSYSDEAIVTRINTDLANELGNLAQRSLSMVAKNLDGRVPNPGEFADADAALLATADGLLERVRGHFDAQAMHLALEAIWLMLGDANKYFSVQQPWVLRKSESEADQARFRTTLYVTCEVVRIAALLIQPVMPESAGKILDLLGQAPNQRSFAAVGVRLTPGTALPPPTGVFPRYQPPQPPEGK

M. tuberculosis = tested on: M. tuberculosis; set-up: method as in PMID 31691918; settings: earlier identified hit; cited from earlier work
[11] = target: T1, M. tuberculosis leucyl-tRNA synthetase (LeuRS); set-up: method as in PMID 31691918; settings: from the previous article ref 22; cited from earlier work
[12] = target: T2, M. tuberculosis methionyl-tRNA synthetase (MetRS); set-up: method as in PMID 31691918; settings: from the previous article ref 22; cited from earlier work
[13] = tested on: Staphylococcus aureus MetRS; set-up: method as in PMID 19015366; settings: S. aureus MetRS versus human mitochondrial MetRS; cited from earlier work
human cytoplasmic LeuRS = tested on: human cytoplasmic LeuRS; set-up: method as in PMID 28953378; settings: cited from earlier work
[14] = tested on: human mitochondrial LeuRS; set-up: method as in PMID 28953378; settings: cited from earlier work
mycobacterial LeuRS = tested on: mycobacterial LeuRS; set-up: method as in PMID 28953378; settings: cited from earlier work
tuberculosis = tested on: tuberculosis; set-up: method as in PMID 28953378; settings: cited from earlier work
[15] = recombinant enzyme, mean ± spread (n in brackets), negative = activation

Compound	MIC [3] [µg/mL]	LeuRS inhibition activity, % [7]	MIC (M. tuberculosis H37Rv [8]) [µg/mL]	MIC [9] [µg/mL]	MetRS inhibition activity, % [10]	IC50 [10] [µM]	Growth inhibition cutoff, M. avium 700,891 (MAC 101) [3] [mg/L]	LeuRS inhibition activity, % [7, 15]	Growth inhibition cutoff, H37Rv (M. tuberculosis H37Rv [8]) [mg/L]	Growth inhibition cutoff, M. abscessus 19,977 [9] [mg/L]	MetRS inhibition activity, % [10, 15]	also measured
COc1ccc(Cl)cc1-n1nnc(-c2nc(-c3ccc(F)cc3)no2)c1N [Compound 27]	> 20	14 ± 12 (2) %	> 20	> 20	57 ± 11 (3) %	148 ± 33.2						CC50 [1]: > 50 µM; cytotoxicity / effect on cell viability [2]: did not affect cell viability; also recorded: not cytotoxic; MIC (M. tuberculosis H37Rv [4]; Mycobacterium tuberculosis, H37RV, 336 h): 25 µM (≈ 9.67 µg/mL); MIC (M. tuberculosis H37Rv [4]): > 50 µM; cytotoxicity / effect on cell viability [5]: did not affect cell viability; also recorded: not cytotoxic; CC50 [6]: > 50 µM
CCc1ccc(-n2nnc(-c3nc(-c4ccc(F)cc4)no3)c2N)cc1 [Compound 14]							> 20	31 ± 7 (2) %	> 20	> 20	41 ± 10 (3) %	
COc1ccc(-n2nnc(-c3nc(-c4ccc(F)cc4)no3)c2N)cc1Cl [Compound 17, 3-(3-chloro-4-methoxy-phenyl)-5-[3-(4-fluoro-phenyl)-[1,2,4]oxadiazol-5-yl]-3H-[1,2,3]triazol-4-ylamine]							> 20	51 ± 28 (2) %	> 20	> 20	77 ± 3 (2) %	antibacterial activity toward M. tuberculosis (M. tuberculosis): does not have antibacterial activity; IC50 [11]: 13 µM; IC50 [12]: 13.8 µM
COc1ccc(-n2nnc(-c3nc(-c4ccc(F)cc4)no3)c2N)cc1 [Compound 13]	> 20	79 ± 7 (2) %	> 20	> 20	36 ± 5 (2) %	122 ± 26						IC50 [7]: 263.5 ± 0.7 µM
Nc1c(-c2nc(-c3ccccc3)no2)nnn1-c1ccc(C(F)(F)F)c(Cl)c1 [Compound 2]	> 20	32 ± 19 (3) %	> 20	> 20	71 ± 29 (2) %	115 ± 3						IC50 [7]: 76.5 ± 66 µM
Cc1cccc(-n2nnc(-c3nc(-c4ccc(F)cc4)no3)c2N)c1 [Compound 18]							> 20	13 ± 11 (2) %	> 20	> 20	26 ± 20 (2) %	
C=C(F)c1sc(CNCCCNc2cc(O)c3ccccc3n2)c(C)c1Br [REP8839]												affinity for the bacterial enzyme relative to human mitochondrial MetRS [13]: 1000 fold
CCOc1ccc(-c2noc(-c3nnn(-c4ccccc4Cl)c3N)n2)cc1 [Compound 40]							> 20	36 ± 16 (3) %	> 20	> 20	22 ± 14 (2) %	
NC[C@H]1OB(O)c2c(OCCO)ccc(Cl)c21 [GSK656, (S)-3-(Aminomethyl)-4-chloro-7-(2-hydroxyethoxy) benzo [c][1, 2] oxaborol-1 (3 H)-ol]												IC50 (human cytoplasmic LeuRS): > 300 µM; IC50 [14]: > 300 µM; IC50 (mycobacterial LeuRS): 0.2 µM; efficacy in an animal model of tuberculosis (tuberculosis): effective
